Measurements reported in patent US20220323406A1, “METHODS AND COMPOSITIONS FOR DIFFERENTIATING STEM CELLS” (Massachusetts Institute of Technology, priority 2019, published 2022).
Counter-ions that a name gives are not always drawn.

What was measured:
[1] = system: ENR+CD organoids (ISC to Paneth cell differentiation); experiment: Primary screen: basal (non-stimulated) lysozyme secretion LYZ.NS, 2.5-D 384-well ENR+CD organoid differentiation; type: cell-based, mouse
Text: (§1) High-throughput screening.

ENR+CD organoids = experiment: Primary screen: ATP (CellTiter-Glo 3D, CTG) cell number/viability, 2.5-D 384-well ENR+CD organoids; conditions: primary screen; for Z.CTG: standard z score;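 as to all read-outs here: compounds given at plating and again on day 3 over a 6-day differentiation from ENR+CV stem-cell-enriched precursors, ATP measured on day 6, plate median as control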
[2] = system: ENR+CD organoids (ISC to Paneth cell differentiation); experiment: Primary screen: CCh-stimulated lysozyme secretion LYZ.S, 2.5-D 384-well ENR+CD organoid differentiation; type: cell-based, mouse; conditions: primary screen
Text: as §1

[3] = dose 0.08 uM, FC relative to plate median
[4] = dose 0.40 uM, FC relative to plate median
[5] = dose 2.00 uM, FC relative to plate median
[6] = dose 10.00 uM, FC relative to plate median

For Cc1c(Cl)cccc1Nc1ccccc1C(=O)O [Tolfenamic Acid], the Dose.FC.LYZ.NS ([1]; primary screen, dose 0.08 uM) was 0.028 log2 fold change, the “Z.LYZ.NS (standard z score)” value ([1]; primary screen, dose 0.08 uM) was 0.242 and the Dose.FC.LYZ.NS ([1]; primary screen, dose 0.40 uM) was 0.023 log2 fold change. For the same molecule, the “Z.LYZ.NS (standard z score)” value ([1]; primary screen, dose 0.40 uM) was 0.200, the Dose.FC.LYZ.NS ([1]; primary screen, dose 2.00 uM) was 0.107 log2 fold change and the “Z.LYZ.NS (standard z score)” value ([1]; primary screen, dose 2.00 uM) was 0.927. The Dose.FC.LYZ.NS ([1]; primary screen, dose 10.00 uM) was −0.039 log2 fold change, the “Z.LYZ.NS (standard z score)” value ([1]; primary screen, dose 10.00 uM) was −0.343 and the Dose.FC.CTG (ENR+CD organoids; dose 0.08 uM) was 0.196 log2 fold change. For the same molecule, the Dose.FC.CTG (ENR+CD organoids; dose 0.40 uM) was −0.003 log2 fold change, the Dose.FC.CTG (ENR+CD organoids; dose 2.00 uM) was −0.159 log2 fold change and the Dose.FC.CTG (ENR+CD organoids; dose 10.00 uM) was −0.115 log2 fold change. For the same molecule, the Dose.FC.LYZ.S ([2]; dose 0.08 uM) was 0.118 log2 fold change, the Dose.FC.LYZ.S ([2]; dose 0.40 uM) was 0.052 log2 fold change and the Dose.FC.LYZ.S ([2]; dose 2.00 uM) was −0.023 log2 fold change. It also gave a Dose.FC.LYZ.S ([2]; dose 10.00 uM) of −0.064 log2 fold change.

With CC(C)(C)Cn1c(N)nc2ccc(-c3[nH]c(C(C)(C)C)nc3-c3ccc(F)cc3)nc21 [LY2228820] the “Dose.FC.LYZ.NS (log2 fold change)” value ([1]; primary screen, dose 0.08 uM) was 0.065, the “Z.LYZ.NS (standard z score)” value ([1]; primary screen, dose 0.08 uM) was 0.569 and the “Dose.FC.LYZ.NS (log2 fold change)” value ([1]; primary screen, dose 0.40 uM) was −0.100. For the same molecule, the “Z.LYZ.NS (standard z score)” value ([1]; primary screen, dose 0.40 uM) was −0.874, the “Dose.FC.LYZ.NS (log2 fold change)” value ([1]; primary screen, dose 2.00 uM) was 0.043 and the “Z.LYZ.NS (standard z score)” value ([1]; primary screen, dose 2.00 uM) was 0.377. For the same molecule, the “Dose.FC.LYZ.NS (log2 fold change)” value ([1]; primary screen, dose 10.00 uM) was −0.126, the “Z.LYZ.NS (standard z score)” value ([1]; primary screen, dose 10.00 uM) was −1.099 and the “Dose.FC.CTG (log2 fold change)” value (ENR+CD organoids; dose 0.08 uM) was −0.299. For the same molecule, the “Z.CTG (standard z score)” value (ENR+CD organoids; dose 0.08 uM) was −0.715, the “Dose.FC.CTG (log2 fold change)” value (ENR+CD organoids; dose 0.40 uM) was −0.340 and the “Z.CTG (standard z score)” value (ENR+CD organoids; dose 0.40 uM) was −0.812. For the same molecule, the “Dose.FC.CTG (log2 fold change)” value (ENR+CD organoids; dose 2.00 uM) was −0.339, the “Z.CTG (standard z score)” value (ENR+CD organoids; dose 2.00 uM) was −0.810 and the “Dose.FC.CTG (log2 fold change)” value (ENR+CD organoids; dose 10.00 uM) was −0.332. For the same molecule, the “Z.CTG (standard z score)” value (ENR+CD organoids; dose 10.00 uM) was −0.793, the “Dose.FC.LYZ.S (log2 fold change)” value ([2]; dose 0.08 uM) was −0.017 and the “Dose.FC.LYZ.S (log2 fold change)” value ([2]; dose 0.40 uM) was −0.054. The “Dose.FC.LYZ.S (log2 fold change)” value ([2]; dose 2.00 uM) was −0.130 and the “Dose.FC.LYZ.S (log2 fold change)” value ([2]; dose 10.00 uM) was −0.164.

For O=C1NC(=O)/C(=C/c2cccc(C(F)(F)F)c2)S1 [SMI-4a], the Dose.FC.LYZ.NS ([1]; primary screen, dose 0.08 uM, FC relative to plate median) was 0.022 log2 fold change, the Z.LYZ.NS ([1]; primary screen, dose 0.08 uM, standard z score) was 0.188 and the Dose.FC.LYZ.NS ([1]; primary screen, dose 0.40 uM, FC relative to plate median) was −0.060 log2 fold change. For the same molecule, the Z.LYZ.NS ([1]; primary screen, dose 0.40 uM, standard z score) was −0.524, the Dose.FC.LYZ.NS ([1]; primary screen, dose 2.00 uM, FC relative to plate median) was 0.032 log2 fold change and the Z.LYZ.NS ([1]; primary screen, dose 2.00 uM, standard z score) was 0.283. The Dose.FC.LYZ.NS ([1]; primary screen, dose 10.00 uM, FC relative to plate median) was −0.074 log2 fold change, the Z.LYZ.NS ([1]; primary screen, dose 10.00 uM, standard z score) was −0.643 and the Dose.FC.CTG (ENR+CD organoids; [3]) was −0.153 log2 fold change. The Z.CTG (ENR+CD organoids; dose 0.08 uM) was −0.366, the Dose.FC.CTG (ENR+CD organoids; [4]) was −0.317 log2 fold change and the Z.CTG (ENR+CD organoids; dose 0.40 uM) was −0.758. The Dose.FC.CTG (ENR+CD organoids; [5]) was −0.332 log2 fold change, the Z.CTG (ENR+CD organoids; dose 2.00 uM) was −0.793 and the Dose.FC.CTG (ENR+CD organoids; [6]) was −0.327 log2 fold change. It also gave a Z.CTG (ENR+CD organoids; dose 10.00 uM) of −0.781, a Dose.FC.LYZ.S [2, 3] of 0.036 log2 fold change and a Dose.FC.LYZ.S [2, 4] of −0.063 log2 fold change. The Dose.FC.LYZ.S [2, 5] was −0.042 log2 fold change and the Dose.FC.LYZ.S [2, 6] was −0.134 log2 fold change.

With CC(C)CCNC(=O)[C@H](CC(C)C)NC(=O)[C@H]1O[C@@H]1C(=O)O [Loxistatin Acid (E-64C)] the “Dose.FC.LYZ.NS (log2 fold change)” value ([1]; primary screen, dose 0.08 uM) was 0.147, the “Z.LYZ.NS (standard z score)” value ([1]; primary screen, dose 0.08 uM) was 1.283 and the “Dose.FC.LYZ.NS (log2 fold change)” value ([1]; primary screen, dose 0.40 uM) was 0.061. For the same molecule, the “Z.LYZ.NS (standard z score)” value ([1]; primary screen, dose 0.40 uM) was 0.534, the “Dose.FC.LYZ.NS (log2 fold change)” value ([1]; primary screen, dose 2.00 uM) was 0.055 and the “Z.LYZ.NS (standard z score)” value ([1]; primary screen, dose 2.00 uM) was 0.482. The “Dose.FC.LYZ.NS (log2 fold change)” value ([1]; primary screen, dose 10.00 uM) was 0.004, the “Z.LYZ.NS (standard z score)” value ([1]; primary screen, dose 10.00 uM) was 0.031 and the “Dose.FC.CTG (log2 fold change)” value (ENR+CD organoids; dose 0.08 uM) was 0.086. The “Z.CTG (standard z score)” value (ENR+CD organoids; dose 0.08 uM) was 0.206, the “Dose.FC.CTG (log2 fold change)” value (ENR+CD organoids; dose 0.40 uM) was 0.156 and the “Z.CTG (standard z score)” value (ENR+CD organoids; dose 0.40 uM) was 0.373. For the same molecule, the “Dose.FC.CTG (log2 fold change)” value (ENR+CD organoids; dose 2.00 uM) was 0.080, the “Z.CTG (standard z score)” value (ENR+CD organoids; dose 2.00 uM) was 0.191 and the “Dose.FC.CTG (log2 fold change)” value (ENR+CD organoids; dose 10.00 uM) was 0.094. For the same molecule, the “Z.CTG (standard z score)” value (ENR+CD organoids; dose 10.00 uM) was 0.224, the “Dose.FC.LYZ.S (log2 fold change)” value ([2]; dose 0.08 uM) was 0.125 and the “Dose.FC.LYZ.S (log2 fold change)” value ([2]; dose 0.40 uM) was 0.105. The “Dose.FC.LYZ.S (log2 fold change)” value ([2]; dose 2.00 uM) was 0.037 and the “Dose.FC.LYZ.S (log2 fold change)” value ([2]; dose 10.00 uM) was 0.021.

In the case of CCNC(=O)[C@H]1O[C@@H](n2cnc3c(N)nc(NCCc4ccc(CCC(=O)O)cc4)nc32)[C@H](O)[C@@H]1O [CGS 21680 HCl], the Dose.FC.LYZ.NS ([1]; primary screen, dose 0.08 uM) is reported as 0.132 log2 fold change, the Dose.FC.LYZ.NS ([1]; primary screen, dose 0.40 uM) is reported as 0.167 log2 fold change and the Dose.FC.LYZ.NS ([1]; primary screen, dose 2.00 uM) is reported as 0.055 log2 fold change. The Dose.FC.LYZ.NS ([1]; primary screen, dose 10.00 uM) was −0.251 log2 fold change, the Z.LYZ.NS ([1]; primary screen, standard z score, dose 0.08 uM) was 1.151 and the Z.LYZ.NS ([1]; primary screen, standard z score, dose 0.40 uM) was 1.452. It also gave a Z.LYZ.NS ([1]; primary screen, standard z score, dose 2.00 uM) of 0.483, a Z.LYZ.NS ([1]; primary screen, standard z score, dose 10.00 uM) of −2.187 and a Dose.FC.CTG (ENR+CD organoids; dose 0.08 uM) of 0.303 log2 fold change. For the same molecule, the Dose.FC.CTG (ENR+CD organoids; dose 0.40 uM) was 0.439 log2 fold change, the Dose.FC.CTG (ENR+CD organoids; dose 2.00 uM) was 0.335 log2 fold change and the Dose.FC.CTG (ENR+CD organoids; dose 10.00 uM) was −1.393 log2 fold change. The Dose.FC.LYZ.S ([2]; dose 0.08 uM) was 0.180 log2 fold change, the Dose.FC.LYZ.S ([2]; dose 0.40 uM) was 0.191 log2 fold change and the Dose.FC.LYZ.S ([2]; dose 2.00 uM) was 0.097 log2 fold change. The Dose.FC.LYZ.S ([2]; dose 10.00 uM) was −0.334 log2 fold change.
